Test results as given in ChEMBL document CHEMBL1201862, “PubChem BioAssay data set” (2004).
The source made the active and inactive calls. Rule as the data show it, for most assays here: actives have a measured EC50 and inactives only a lower limit.

How the values were obtained:
[1] = target: T1, Ubiquitin-conjugating enzyme E2 N (Homo sapiens, UniProt P61088); format: functional;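 also: Dose-response confirmation in a TR-FRET assay detecting UBC13-driven polyubiquitin chain formation, inhibition measured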
T1 sequence (P61088 whole entry): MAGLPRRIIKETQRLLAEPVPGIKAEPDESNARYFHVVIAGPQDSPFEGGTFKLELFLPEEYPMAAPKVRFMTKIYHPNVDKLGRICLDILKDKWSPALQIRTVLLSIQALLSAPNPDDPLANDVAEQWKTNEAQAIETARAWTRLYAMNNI

[2] = target: T2, RNA-binding protein pos-1 (Caenorhabditis elegans, UniProt G5EF15); assay: inhibitors of POS-1/mex-3 RNA binding, dose response, biochemical, fluorescence polarization (AID 1964);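 also: purified POS-1 fused to maltose binding protein made in E. coli; potency of compounds blocking POS-1 binding to fluorescent RNA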
T2 sequence (G5EF15 whole entry): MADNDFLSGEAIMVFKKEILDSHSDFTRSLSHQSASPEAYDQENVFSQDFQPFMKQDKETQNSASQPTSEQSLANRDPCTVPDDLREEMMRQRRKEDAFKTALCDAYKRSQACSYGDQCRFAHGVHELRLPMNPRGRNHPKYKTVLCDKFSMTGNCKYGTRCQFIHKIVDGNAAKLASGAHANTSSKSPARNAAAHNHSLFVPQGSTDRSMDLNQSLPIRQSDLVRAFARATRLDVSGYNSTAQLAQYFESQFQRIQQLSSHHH

[3] = target: T3, Zinc finger protein mex-5 (Caenorhabditis elegans, UniProt Q9XUB2); assay: MEX-5/TCR-2 RNA interaction inhibitors, dose response, biochemical, C. elegans, fluorescence polarization (AID 1960)
T3 sequence (Q9XUB2 whole entry): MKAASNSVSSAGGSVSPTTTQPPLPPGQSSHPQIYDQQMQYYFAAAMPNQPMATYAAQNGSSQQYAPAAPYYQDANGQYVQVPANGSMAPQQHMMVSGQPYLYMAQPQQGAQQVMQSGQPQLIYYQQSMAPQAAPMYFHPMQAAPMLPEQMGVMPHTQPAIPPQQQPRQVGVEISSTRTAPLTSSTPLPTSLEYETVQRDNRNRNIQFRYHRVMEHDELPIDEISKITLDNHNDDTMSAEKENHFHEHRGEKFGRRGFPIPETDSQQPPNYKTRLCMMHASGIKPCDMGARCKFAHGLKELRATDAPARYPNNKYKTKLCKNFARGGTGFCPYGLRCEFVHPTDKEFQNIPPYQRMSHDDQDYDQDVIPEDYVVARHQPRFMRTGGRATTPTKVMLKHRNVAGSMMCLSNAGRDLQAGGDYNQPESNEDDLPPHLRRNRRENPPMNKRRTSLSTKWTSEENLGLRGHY

[4] = target: T4, Corticotropin-releasing factor receptor 2/Corticotropin-releasing factor-binding protein (Homo sapiens, UniProt P24387+Q13324); assay: activators of CRF receptor 2 with binding protein – uHTS hits, confirmation (AID 602473); format: functional; conditions: read-out: EC50_Mean
T4 sequence (Q13324 whole entry): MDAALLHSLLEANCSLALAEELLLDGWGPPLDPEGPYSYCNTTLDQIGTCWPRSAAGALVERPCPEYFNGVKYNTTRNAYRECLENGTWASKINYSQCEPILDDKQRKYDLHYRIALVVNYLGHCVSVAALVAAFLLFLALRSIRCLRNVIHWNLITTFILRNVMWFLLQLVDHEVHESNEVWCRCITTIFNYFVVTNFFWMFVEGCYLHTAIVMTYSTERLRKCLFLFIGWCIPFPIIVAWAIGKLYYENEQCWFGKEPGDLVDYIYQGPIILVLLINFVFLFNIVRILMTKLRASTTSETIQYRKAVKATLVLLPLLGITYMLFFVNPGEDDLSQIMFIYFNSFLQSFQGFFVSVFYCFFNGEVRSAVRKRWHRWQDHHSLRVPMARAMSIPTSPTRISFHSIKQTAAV
T4 sequence (P24387 whole entry): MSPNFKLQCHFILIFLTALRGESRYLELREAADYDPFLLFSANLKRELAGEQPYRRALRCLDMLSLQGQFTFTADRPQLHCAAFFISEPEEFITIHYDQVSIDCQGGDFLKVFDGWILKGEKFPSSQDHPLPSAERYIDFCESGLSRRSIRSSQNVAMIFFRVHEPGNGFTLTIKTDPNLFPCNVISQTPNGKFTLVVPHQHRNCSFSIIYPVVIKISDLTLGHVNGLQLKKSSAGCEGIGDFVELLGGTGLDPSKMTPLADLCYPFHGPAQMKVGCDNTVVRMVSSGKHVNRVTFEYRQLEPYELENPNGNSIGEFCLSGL

[5] = test system: BJ; assay: cytotoxicity toward BJ-TERT fibroblasts, dose response, cell-based, RAS-independent, luminescence (AID 1933); format: functional; conditions: Homo sapiens
[6] = test system: BJ; assay: cells; format: functional, cell-based; conditions: Homo sapiens
[7] = test system: BJ; assay: cytotoxicity toward BJ-TERT-LT-ST fibroblasts, dose response, cell-based, RAS-independent, luminescence (AID 1935); format: functional; conditions: Homo sapiens;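 also: BJ fibroblasts immortalized with TERT plus LT and ST oncogenes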
[8] = cytotoxicity toward DRD oncogenic fibroblasts, dose response, cell-based, non-viral oncogenic, luminescence (AID 1934); format: functional; conditions: Homo sapiens
[9] = Luminescence Cell-Based Dose Retest to Confirm Inhibitors of Cancer Stem Cells. [Related pubchem assays (depositor defined):AID2717, AID2721]; format: functional; conditions: Homo sapiens
[10] = test system: INS1; assay: beta cell apoptosis inhibitors, cytokine rescue, dose response, luminescence, retest (AID 449756); format: functional, cell-based; conditions: Rattus norvegicus;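 also: cell death triggered by IL-1 beta plus TNF-alpha plus IFN-gamma mixture; protective hits raise ATP signal compared with cytokine alone wells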
[11] = growth suppression of PTEN-null colon cells, dose response, cell-based, HCT116 PTEN knockout (AID 1047); format: functional;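 also: HCT116 colon tumor cells with PTEN knocked out; cells exposed to compound for 60 hours before readout; potency for loss of cell viability measured by luminescence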
[12] = growth suppression of beta-catenin-knockout colon cells, dose response, cell-based, HCT116, human colon tumor (AID 1045); format: functional;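 also: HCT116 colon tumor cells with beta catenin knocked out; cells exposed to compound for 60 hours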
[13] = Luminescence Cell-Based Dose Response HTS to Identify Activators of Luciferase Translation or Activity in H4 […] Cells. [Related pubchem assays: 1829 (Project Summary), 1814 (Primary HTS)]; format: functional
[14] = test system: H4; assay: Luminescence Cell-Based Dose Response HTS to Identify Activators of 5'UTR Stem-Loop Driven Prion Protein mRNA Translation in H4 Neuroglioblastoma Cells. [Related pubchem assays: 1829 (Project Summary), 1814 (Primary HTS)]; format: functional; conditions: Homo sapiens
[15] = cells; format: functional
[16] = inhibitors of clade B AD8 Env fusion, dose response, cell-based, cherry-pick (AID 652062); format: functional;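 also: luciferase signal from cell-cell fusion driven by HIV-1 clade B AD8 Env; potency is for inhibitors of fusion seen as a drop in luminescence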
[17] = HEp-2 cell cytotoxicity, dose response, cytotoxicity control for RSV inhibitor project, HTS (AID 2410); format: functional; conditions: human respiratory syncytial virus
[18] = test system: Streptococcus sp. 'group A'; assay: growth inhibition of control SK(-) GAS strain, dose response, counter-screen for streptokinase expression inhibitor project, luminescence, kanamycin, BacTiterGlo, confirmation (AID 1900); format: functional, organism-based
[19] = inhibitors of intracellular T. cruzi replication, confirmation, NIH3T3 host cells, beta-gal luminescence (AID 2044); format: functional, cell-based;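 also: intracellular parasites grown in NIH/3T3 mouse fibroblasts as host cells; luminescent beta-galactosidase reporter signal from transgenic T. cruzi replicating inside host cells; inhibitors lower the luminescence signal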
[20] = cytotoxicity toward NIH3T3 fibroblasts, dose response, counter-screen, cell-based, ATP luminescence, mouse fibroblasts (AID 2010); format: functional;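 also: cells exposed to compound for about 90 hours before reading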
[21] = test system: Streptococcus; assay: Group A Streptococcus viability loss, dose response, counter-screen for streptokinase expression inhibitor project, luminescence, BacTiterGlo (AID 1915); format: functional, organism-based;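 also: potency for reduction of bacterial viability or growth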
[22] = test system: Vero; assay: cells; format: functional; conditions: Chlorocebus sabaeus
[23] = ZM109 Env clade C HIV-1 fusion inhibitors, dose response, HeLa effector, CEM target cells, luciferase, cherry-pick (AID 652058); format: functional, cell-based
[24] = target: T5, Streptokinase A (Streptococcus pyogenes serotype M1, UniProt P10520); assay: S. pyogenes streptokinase expression inhibitors, potency, dose response, plasminogen activation absorbance, OD405 (AID 1914); format: functional, Streptococcus pyogenes M1 GAS;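 also: secreted streptokinase activity via plasminogen activation per viability signal from cell pellet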
T5 sequence (P10520 whole entry): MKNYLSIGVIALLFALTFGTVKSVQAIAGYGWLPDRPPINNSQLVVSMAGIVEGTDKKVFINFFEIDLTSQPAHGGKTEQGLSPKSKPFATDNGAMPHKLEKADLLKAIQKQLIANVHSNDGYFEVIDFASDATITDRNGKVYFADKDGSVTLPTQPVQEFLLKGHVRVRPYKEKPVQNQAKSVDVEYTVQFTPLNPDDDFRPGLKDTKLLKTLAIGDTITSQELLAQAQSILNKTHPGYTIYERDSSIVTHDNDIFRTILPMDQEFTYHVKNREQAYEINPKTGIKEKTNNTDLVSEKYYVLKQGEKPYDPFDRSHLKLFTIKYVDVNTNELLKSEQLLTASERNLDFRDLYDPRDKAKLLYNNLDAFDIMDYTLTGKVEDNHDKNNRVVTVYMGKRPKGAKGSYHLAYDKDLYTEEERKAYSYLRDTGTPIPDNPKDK

[25] = microbe, parasite or virus in culture; format: functional; conditions: Mycobacterium tuberculosis
[26] = P. falciparum Dd2 growth inhibitors, dose response, SYBR Green, cherry-picked samples (AID 1159567); format: functional, cell-based

CCCC(=O)N(CCN1CCOCC1)c1nc2c(C)cccc2s1
IC50 [1]: > 20 µM (inactive)

CCN(CC)S(=O)(=O)c1ccc(N/C=C2\C(=O)N(C)C(=O)C(C#N)=C2C)cc1
EC50 [2]: 32.7 µM (active)
EC50 [3]: 44.4 µM (active)

Cc1cc(N2CCOCC2)nc(NCc2ccccc2)n1
EC50 [4]: 5.68 µM (active)

N#CC1=C(N)N2C(=C(C#N)C1c1ccc(Br)cc1)Nc1ccccc12 (stereo not drawn)
EC50 [5]: 11.8 µM (inconclusive)
EC50 [6]: 62.4 µM (active)
EC50 [7]: > 150 µM (inconclusive)
EC50 [8]: 9.84 µM (active)
AC50 [9]: 0.794 µM (active)
AC50 [10]: 3.56 µM (active)

O=C(NCC1OCCc2ccccc21)c1ccc(NC(=O)c2cccc(Br)c2)cc1 (stereo not drawn)
EC50 [11]: 25.2 µM (active)
EC50 [12]: 36.9 µM (active)

CCN(CC)c1ccc(N=Nc2nc[nH]n2)cc1
EC50 [2]: 73.4 µM (active)
EC50 [3]: > 300 µM (inconclusive)

O=[N+]([O-])c1ccc2nc(O)c(/C=C(\O)c3ccccc3)nc2c1
EC50 [2]: 20.1 µM (active)
EC50 [3]: > 300 µM (inconclusive)

CCOC(=O)c1sc2nc3n(c(=O)c2c1C)CCCCC3
EC50 [13]: 27.9 µM (active)
EC50 [14]: 101 µM (active)

O=C1Nc2cc(Cl)cnc2N2CCCC12 (stereo not drawn)
EC50 [2]: 16.8 µM (active)
EC50 [3]: 12.5 µM (active)

O=C(Nc1ccc(-c2nc3ccccc3c(=O)o2)cc1)c1ccco1
IC50 [15]: 0.84 µM (active)

CCC1(C)Cc2c(sc3nnn(CC(=O)Nc4cccc5ccccc45)c(=O)c23)CO1 (stereo not drawn)
EC50 [11]: 25.8 µM (active)
EC50 [12]: 23.9 µM (active)

COc1ccc(/C=C/c2nc(S(=O)(=O)c3ccccc3)c(NCCCN(C)C)o2)cc1OC
AC50 [16]: 14.6 µM (active)

Cc1cc(NC(=O)CSc2nc3c(c(=O)n2-c2ccc(Br)cc2)SCC3)no1
EC50 [12]: 155 µM (active)

Cc1cccc(-c2nc(C#N)c(NCC3CCCO3)o2)c1 (stereo not drawn)
EC50 [13]: 1.97 µM (active)
EC50 [14]: 36 µM (active)

COc1ccc(NC(=O)C(c2cc3c(cc2[N+](=O)[O-])OCO3)N(C)c2ccccc2)cc1 (stereo not drawn)
EC50 [4]: > 53 µM (inactive)

CCOC(=O)CC(=O)Nc1ccc(C(=O)OCC)cc1
IC50 [15]: 22.4 µM (active)

CCc1nc2sc3c(c2c(=O)n1NC(=O)CCl)CCCC3
CC50 [17]: 10.2 µM (active)
EC50 [5]: > 150 µM (not active)
EC50 [6]: > 150 µM (not active)
EC50 [7]: > 150 µM (not active)
EC50 [8]: > 150 µM (not active)

O=C1NC(=O)N(Cc2ccc(F)cc2)C(=O)/C1=C\c1ccc([N+](=O)[O-])s1
IC50 [15]: 24.7 µM (active)

COc1cc(/C=C/c2ccc3cccc(O)c3n2)c(Br)cc1O
EC50 [18]: 0.865 µM (active)
EC50 [19]: 3.92 µM (active)
EC50 [20]: > 60 µM (not active)
EC50 [21]: 2.68 µM (active)
CC50 [22]: 8.46 µM (active)

CN(C)c1ccc(/C=C2\C(=N)N3N=C(CC(=O)N4CCCCC4)SC3=NC2=O)cc1
EC50 [4]: 6.36 µM (active)

O=C(NCC1CCCCC1)c1ccc(F)cc1Cl
EC50 [13]: 107 µM (active)
EC50 [14]: > 120 µM (not active)

Cc1ccsc1C1NC(=O)c2c(sc3c2CCN(C)C3)N1 (stereo not drawn)
EC50 [4]: > 53 µM (inactive)

Cc1cc(O)c(CN(C)C)c2c1C(=O)/C(=C/c1ccco1)O2
EC50 [2]: 32.1 µM (active)
EC50 [3]: 39.8 µM (active)

C=C[C@](C)(CC[C@@]1(C)C(C)CC(OC2OC(C)C(OC3OC(COC(C)=O)C(O)C(O)C3O)C(O)C2O)[C@@]2(C)C(C)=CCCC12)OC1OC(C)C(O[C@@H]2O[C@@H](C)C(O)C(O)[C@H]2O)C(O)C1O (stereo partly drawn)
IC50 [1]: > 20 µM (inactive)

NCCCC[C@@H](C(=O)N1CCNCC1)n1cc(CN)nn1
IC50 [1]: > 20 µM (inactive)

C=CCC[C@@H](Cc1ccc(F)cc1)C(=O)OC[C@H](Cc1c[nH]c2ccccc12)NC(=O)[C@@H](CC=C)CC(=O)NCCO
EC50 [4]: 11.4 µM (active)

COC(=O)C1CCN(C(=O)COC(=O)c2cc(S(=O)(=O)N3CCOCC3)ccc2C)CC1
AC50 [23]: 17.5 µM (active)
AC50 [16]: 45.6 µM (active)

C/C(=N\NC(=O)CSCc1ccc([N+](=O)[O-])cc1)c1ccccc1O
IC50 [1]: > 20 µM (inactive)

CC1=CC(C)(C)n2c(O)c(/N=N/C(=N)S)c3cc(C)cc1c32
IC50 [1]: > 20 µM (inactive)

C/C(=N\NC(=O)c1cc([N+](=O)[O-])cc([N+](=O)[O-])c1)c1ccco1
EC50 [19]: 0.768 µM (active)
EC50 [20]: > 60 µM (not active)
IC50 [15]: 3.35 µM (active)

Oc1ccc(Br)cc1/C=N/Nc1nc(N2CCCCC2)nc(N2CCOCC2)n1
EC50 [18]: 3.48 µM (active)
EC50 [24]: 33.6 µM (active)
EC50 [19]: 1.91 µM (active)
CC50 [25]: > 40 µM (active)
EC50 [20]: > 60 µM (not active)
EC50 [21]: 24.7 µM (active)

Cc1ccccc1S(=O)(=O)N1[C@H](C#N)[C@H](c2ccc(C#CC3CCCC3)cc2)[C@@H]1CO
AC50 [26]: 5.11 µM (active)
